From PMC7760690, “Neuroprotective Metabolites from Vietnamese Marine Derived Fungi of Aspergillus and Penicillium Genera” (Marine Drugs, 2020)

Tests used:
[1] = test system: MCF-7, HepG-2, NCI-H460 and SF-268; set-up: method as in PMID 18444265, PMID 28481313, PMID 27128202; settings: four tumor cell lines and some others; cited from earlier work
[2] = test system: 6-OHDA-treated Neuro-2a cells; test: ROS level in 6-OHDA-treated cells (H2DCFDA); assay type: cell-based, murine
Description: (§1) The murine neuroblastoma cell line Neuro-2a was purchased from ATCC.
(§2) Neuro-2a cells were cultured in DMEM medium containing 10% fetal bovine serum (Biolot, St. Petersburg, Russia) and 1% penicillin/streptomycin (Biolot, St. Petersburg, Russia). Cells were incubated at 37 °C in a humidified atmosphere containing 5% (v/v) CO2 [71].
(§3) The cells (1 × 10^4 cells/well of a 96-well plate) were incubated with compound solutions (10 µM) during 1 h. Then, 6-OHDA/PQ/rotenone were added to cell suspension to resulting concentration of 50 µM, 500 µM and 10 µM respectively for incubation during 1 h. Cells incubated without neurotoxins and compounds and with neurotoxins alone were used as positive and negative controls, respectively. The 20 µL of 2,7-dichlorodihydrofluorescein diacetate solution (H2DCFDA, Molecular Probes, Eugene, OR, USA) was added to each well (10 µM, final concentration) and the plate was incubated for an additional 10 min at 37 °C. The intensity of dichlorofluorescein fluorescence was measured with PHERAstar FS plate reader (BMG Labtech, Ortenberg, Germany) at λex = 485 nm and λem = 518 nm. The data were processed by MARS Data Analysis v. 3.01R2 (BMG Labtech, Germany). The results were presented as the percent of positive control data.

[3] = DPPH radical scavenger assay; settings: for EC50 / DPPH Radical Scavenging 100 µM % of MeOH: 30 min; for EC50: MeOH, read-out: DPPH Radical Scavenging EC50; for DPPH Radical Scavenging 100 µM % of MeOH: compound 100 µM, absorbance 520 nm
Description: The DPPH radical scavenging activities of the compounds were tested as described.
The compounds were dissolved in MeOH, and the solutions (120 µL) were dispensed into wells of a 96-well microplate. In all, 30 µL of the DPPH (Sigma-Aldrich, Steinheim, Germany) solution in MeOH (7.5 × 10^−3 M) was added to each well. The concentrations of the test compounds in the mixtures were 10 and 100 µM. The mixtures were shaken and left to stand for 30 min, and the absorbance of the resulting solutions was measured at 520 nm with a microplate reader MultiscanFC (ThermoScientific, Waltham, MA, USA). The concentration scavenging 50% of the DPPH radical (EC50) was calculated for each investigated compound.

[4] = test system: Escherichia coli and Bacillus subtilis; set-up: method as in doi:10.1007/s10600-016-1745-x; settings: cited from earlier work
[5] = test system: PQ-treated Neuro-2a cells; test: ROS level in PQ-treated cells (H2DCFDA); assay type: cell-based, murine
Description: as §1, §2
as §3, with “The cells (1 × 10^4 cells/well of a 96-well plate) were incubated with compound solutions (10 µM) during 1 h.” left out

MTT cytotoxicity assay = assay type: cell-based, murine; settings: mouse, Neuro-2a neuroblastoma cells; Neuro-2a cells, MTT
Description: as §1, §2
The in vitro cytotoxicity of the individual substances was evaluated using an MTT (3-(4,5-dimethylthiazol-2-yl)-2,5-diphenyltetrazolium bromide) assay, which was performed according to the manufacturer’s instructions (Sigma-Aldrich, USA). Absorbance of the converted formazan was measured using a Multiskan FC plate photometer (Thermo Scientific, Waltham, MA, USA) at λ = 570 nm. The results were presented as percent of control data, and concentration of cell viability inhibition on 50% (IC50) was calculated.

[6] = set-up: method as in doi:10.1007/BF03175531; settings: cited from earlier work
[7] = test system: rotenone-treated Neuro-2a cells; test: ROS level in rotenone-treated cells (H2DCFDA); assay type: cell-based, murine
Description: as §1, §2, §3

[8] = set-up: method as in doi:10.1007/BF01922472, doi:10.1016/j.tet.2016.09.008; settings: cited from earlier work
[9] = test system: Neuro-2a cells treated with 6-OHDA; test: 6-OHDA-induced PD cell model, cell viability (MTT); assay type: cell-based, murine; settings: compounds 6-12 at 1 µM; 6-OHDA 50 µM
Description: as §1, §2
(§4) The neuroblastoma Neuro-2a line cells (1 × 10^4 cells/well) were treated with the test compounds at concentrations of 1 and/or 10 µM for 1 h, and then the neurotoxins were added to the neuroblastoma cell suspensions. Rotenone (Sigma-Aldrich, USA) was used at the concentration of 10 µM. Paraquat (Sigma-Aldrich, USA) was used at 500 µM. 6-Hydroxydopamine (Sigma-Aldrich, USA) was used at 50 µM. Cells incubated without neurotoxins and the test compounds and cells incubated with neurotoxins only were used as positive and negative controls, respectively. After 24 h of incubation, the cell viabilities were measured using the MTT method. The results are presented as the percent of positive control data.

[10] = test system: rotenone-treated Neuro-2a cells; test: Rotenone-induced PD cell model, cell viability (MTT); assay type: cell-based, murine
Description: as §1, §2, §4

[11] = test system: PQ-treated Neuro-2a cells; test: Paraquat-induced PD cell model, cell viability (MTT); assay type: cell-based, murine
Description: as §1, §2, §4

Nrf2-ARE pathway = test system: Nrf2-ARE pathway; set-up: method as in PMID 27450949; settings: cited from earlier work
[12] = no exact data published; cited from earlier work
[13] = compounds 1-5, compound 10 µM 1 h, 6-OHDA 50 µM 1 h
[14] = compounds 1-5, compound 10 µM 1 h, PQ 500 µM 1 h
[15] = compounds 1-5, compound 10 µM 1 h, rotenone 10 µM 1 h

Row | Compound | EC50 [3] [µM] | DPPH Radical Scavenging 100 µM % of MeOH [3] | IC50 (MTT cytotoxicity assay) [µM] | other results
1 | O=C1C[C@H](O)[C@@H](O)c2cc(O)cc(O)c21 [Compound 1, (3S,4S)-4-hydroxyscytalone] | > 100 | 83.4 ± 1.2 % of MeOH | > 100 | cytotoxicity against tumor cell lines [1]: no activity was shown; influence on ROS level in 6-OHDA-treated cells [2, 13]: decreased a ROS level; antimicrobial activity [4]: weak antimicrobial activity; influence on ROS level in PQ-treated cells [5, 14]: decreased a ROS level; antinematodal activity [6]: antinematodal agents; influence on ROS level in rotenone-treated cells [7, 15]: decreased a ROS level; phytotoxic activity [8]: phytotoxic
2 | COC1=C(c2c[nH]c3ccccc23)C(=O)C(OC)=C(c2c[nH]c3c(CC=C(C)C)cccc23)C1=O [Compound 10, asterriquinone C2] | > 100 | 91.3 ± 1.1 % of MeOH | > 100 | –
3 | C=CC(C)(C)c1[nH]c2ccccc2c1C1=C(OC)C(=O)C(c2c(C(C)(C)C=C)[nH]c3ccccc23)=C(OC)C1=O [Compound 8, asterriquinone B4] | > 100 | 89.5 ± 0.9 % of MeOH | 91.5 ± 1.87 | –
4 | C=CC(C)(C)c1[nH]c2ccccc2c1C1=C(OC)C(=O)C(c2cn(C(C)(C)C=C)c3ccccc23)=C(OC)C1=O [Compound 7, Asterriquinone A3] | > 100 | 88.9 ± 1.6 % of MeOH | > 100 | cytoprotective activity in 6-OHDA-induced PD cell model [9]: weak cytoprotective activity
5 | C=C(C)[C@H]1Cc2c(ccc3c2O[C@@H]2COc4cc(OC)c(OC)cc4[C@@H]2C3=O)O1 [Rotenone, reference compound] | – | – | – | decrease of Neuro-2a cell viability by neurotoxin ([10]; rotenone 10 µM alone, 24 h): 48%; increase of intracellular ROS level by neurotoxin ([7]; rotenone 10 µM alone, 1 h): 79%
6 | COc1c2c(c(OC)c(O)c1-c1c[nH]c3ccccc13)C1(O)c3ccccc3NC1O2 (centres unmarked) [Compound 6, 3-(1H-indol-3-yl)-1,4-dimethoxy-5a,6-dihydro-10bH-benzofuro [2,3-b]indole-2,10b-diol] | > 100 | 67.3 ± 3.9 % of MeOH | > 100 | –
7 | C[n+]1ccc(-c2cc[n+](C)cc2)cc1 [PQ, paraquat, reference compound] | – | – | – | decrease of Neuro-2a cell viability by neurotoxin ([11]; paraquat 500 µM alone, 24 h): 44%; increase of intracellular ROS level by neurotoxin ([5]; PQ 500 µM alone, 1 h): 48%
8 | CC1CC(O)CC2(Cc3cc(O)cc(O)c3C(=O)O2)O1 (centres unmarked) [Compound 3, demethylcitreoviranol] | > 100 | 91.2 ± 1.8 % of MeOH | > 100 | influence on ROS level in PQ-treated cells [5, 14]: effective against ROS level enhancing; influence on ROS level in rotenone-treated cells [7, 15]: effective against ROS level enhancing; inducing of the Nrf2-ARE pathway (Nrf2-ARE pathway): weak inducing of the Nrf2-ARE pathway
9 | O=C1C[C@H](O)[C@@H](O)c2cccc(O)c21 [Compound 2, (3S,4S)-4-hydroxy-6-dehydroxyscytalone] | > 100 | 84.8 ± 3.2 % of MeOH | > 100 | influence on ROS level in 6-OHDA-treated cells [2, 13]: decreased a ROS level; influence on ROS level in PQ-treated cells [5, 14]: decreased a ROS level; antinematodal activity [6]: antinematodal agents; influence on ROS level in rotenone-treated cells [7, 15]: decreased a ROS level; phytotoxic activity [8]: phytotoxic
10 | COc1cc(O)cc2c1C(=O)c1c(O)cc(C)cc1C2=O [Compound 12, questin] | > 100 | 87.7 ± 2.4 % of MeOH | > 100 | influence on ROS level in 6-OHDA-treated cells ([2]; compounds 6-12, 1 µM (method: 10 µM), 6-OHDA 50 µM): significant in vitro anti-ROS activity; cytoprotective activity in PQ-induced PD cell model ([11]; compounds 6-12 at 1 µM, paraquat 500 µM): inactive; cytoprotective activity in 6-OHDA-induced PD cell model [9]: inactive; radical scavenging activity in cell-free assay ([3]; DPPH, up to 100 µM): did not show any significant DPPH radical scavenging; DPPH-radical scavenging activity [12]: DPPH-radical scavenging activity has been reported; influence on ROS level in PQ-treated cells ([5]; compounds 6-12, 1 µM (method: 10 µM), PQ 500 µM): significant in vitro anti-ROS activity; cytoprotective activity in rotenone-induced PD cell model ([10]; compounds 6-12 at 1 µM, rotenone 10 µM): moderate cytoprotective activity; influence on ROS level in rotenone-treated cells ([7]; compounds 6-12, 1 µM (method: 10 µM), rotenone 10 µM): significant in vitro anti-ROS activity
11 | C=CC(C)(C)c1[nH]c2ccccc2c1C1=C(OC)C(=O)C(c2c[nH]c3ccccc23)=C(OC)C1=O [Compound 9, asterriquinone C1] | > 100 | 82.4 ± 1.7 % of MeOH | 42.3 ± 1.45 | –
12 | NCCc1cc(O)c(O)cc1O [Compound 6-OHDA, 6-hydroxydopamine, reference compound] | – | – | – | increase of intracellular ROS level by neurotoxin ([2]; 6-OHDA 50 µM alone, 1 h): 66%
13 | COC1=C(c2c[nH]c3ccccc23)C(=O)C(OC)=C(c2c[nH]c3ccccc23)C1=O [Compound 11, asterriquinone D] | > 100 | 85.6 ± 1.3 % of MeOH | > 100 | –
